Laboratory results reported in patent publication US20040186166A1, “Cannabinoid analogs as peroxisome proliferator activated nuclear receptor gamma activators” (priority 2002, published 2004).

Key:
PPARγ ΔAF2 mutant = target: T1, PPARγ ΔAF2 mutant (Mus musculus, UniProt P37238); assay: PPRE-Luc reporter assay, AF-2 helix-truncated PPARγ; format: cell-based
T1 construct: introduce a stop codon and a NheI restriction site after amino acid 489; expressed in transfected cells; host or cells: HEK293
T1 sequence (P37238 1-459 isoform P37238-2): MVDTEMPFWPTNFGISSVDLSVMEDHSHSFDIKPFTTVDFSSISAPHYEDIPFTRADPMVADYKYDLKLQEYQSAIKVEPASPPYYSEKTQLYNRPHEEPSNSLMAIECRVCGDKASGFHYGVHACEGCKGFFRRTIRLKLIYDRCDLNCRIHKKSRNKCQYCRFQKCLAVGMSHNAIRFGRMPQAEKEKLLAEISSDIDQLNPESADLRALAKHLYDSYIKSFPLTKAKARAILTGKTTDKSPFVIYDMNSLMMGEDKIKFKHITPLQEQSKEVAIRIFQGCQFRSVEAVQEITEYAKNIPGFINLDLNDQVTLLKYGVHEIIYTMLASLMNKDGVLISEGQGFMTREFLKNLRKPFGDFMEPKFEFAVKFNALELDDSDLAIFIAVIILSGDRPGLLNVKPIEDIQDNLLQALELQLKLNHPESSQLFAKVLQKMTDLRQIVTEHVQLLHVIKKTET
Description: The-pCMX-Gal4-mPPARγ1 was constructed by fusing the mPPARγ1 coding sequence to the yeast GAL4 DNA binding domain (amino acid 1-147) in the pCMX vector. The AF-2 helix-truncated mutant of mPPARγ1 (PPARγ ΔAF2) was generated by PCR amplification-to introduce a stop codon and a NheI restriction site after amino acid 489, and then-subcloned into the pCMX vector. The PPRE-TK-LUC, MH100-TK-LUC-and DR1-TK-LUC reporters have been described previously (Forman et al., Cell 83:803-812, 1995; Umesono et al., Cell 65:1255-1266, 1991).
For PPARγ activation assay, HEK293 cells were plated in 12-well cell culture plates and maintained in Dulbecco's modified Eagle's medium (DMEM) supplemented with 10% fetal bovine serum (FBS) at 37° C. under 5% CO2. Cells were changed to phenol red-free DMEM supplemented with 10% charcoal-stripped fetal bovine serum 3 hours before transfection by a standard calcium-phosphate precipitation method. Twelve hours after transfection, the cells were washed with phosphate-buffered saline (PBS) and fed again with fresh medium containing the indicated concentrations of compounds. After 36 hours, cells were harvested for β-galactosidase and luciferase activities as described previously (Li et al., Proc Natl Acad Sci USA 94:8479-84, 1997). The average normalized luciferase activity was determined via triplicate experiments. […]

human PPARα = target: T2, human PPARα (Homo sapiens, UniProt Q07869); assay: Gal4-dependent MH100-Luc reporter, human PPARα; format: cell-based
T2 construct: The Gal4-hPPAR LBD constructs were obtained from GlaxoSmithKline; host or cells: HEK293
T2 sequence (Q07869 239-466 limits assumed): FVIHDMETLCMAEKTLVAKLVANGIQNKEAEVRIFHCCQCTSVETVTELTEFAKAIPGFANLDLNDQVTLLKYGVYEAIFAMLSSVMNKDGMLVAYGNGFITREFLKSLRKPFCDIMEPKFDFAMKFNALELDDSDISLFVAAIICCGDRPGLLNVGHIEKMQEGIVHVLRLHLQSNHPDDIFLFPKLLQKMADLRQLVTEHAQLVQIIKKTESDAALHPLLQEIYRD
Procedure: The pGEX-DRIP205 (527˜970) was obtained from the Sloan-Kettering Cancer Center. The Gal4-hPPAR LBD constructs were obtained from GlaxoSmithKline, Research Triangle Park, NC. The IL8-Luciferase reporter was obtained from Celgene, San Diego, Calif. The plasmids mPPARα, mPPARγ1, mPPARδ , and hRXRα were in the pCMX vector (Umesono et al., Cell 65:1255-1266, 1991).
For PPARγ activation assay, HEK293 cells were plated in 12-well cell culture plates and maintained in Dulbecco's modified Eagle's medium (DMEM) supplemented with 10% fetal bovine serum (FBS) at 37° C. under 5% CO2. […] The average normalized luciferase activity was determined via triplicate experiments. […]
To further confirm activation of PPARγ by AJA, and also to determine PPARγ species specificity, the ability of AJA to activate the chimeric Gal4-DBD/PPAR fusion proteins on a Gal4-dependent MH100-Luc reporter was assessed (FIG. 4A). The PPARs were expressed as Gal4 DBD fusion proteins, which bind to the UAS promoter containing 4 copies of a synthetic Gal4 binding site upstream of the minimal thymidine kinase (TK) promoter. […] Transfected cells were treated with increasing concentrations of AJA from 10-60 μM and the luciferase activities were determined in triplicate experiments. […]

COX-1 = COX-1 (Homo sapiens, UniProt P23219); conditions: 0.25-25 μM, Zurier et al. 1998; cited from earlier work
[1] = IL-1β and TNFα injected into subcutaneous air pouches, mice; cited from earlier work
[2] = cited from earlier work

Sequence of COX-1 (P23219 24-599): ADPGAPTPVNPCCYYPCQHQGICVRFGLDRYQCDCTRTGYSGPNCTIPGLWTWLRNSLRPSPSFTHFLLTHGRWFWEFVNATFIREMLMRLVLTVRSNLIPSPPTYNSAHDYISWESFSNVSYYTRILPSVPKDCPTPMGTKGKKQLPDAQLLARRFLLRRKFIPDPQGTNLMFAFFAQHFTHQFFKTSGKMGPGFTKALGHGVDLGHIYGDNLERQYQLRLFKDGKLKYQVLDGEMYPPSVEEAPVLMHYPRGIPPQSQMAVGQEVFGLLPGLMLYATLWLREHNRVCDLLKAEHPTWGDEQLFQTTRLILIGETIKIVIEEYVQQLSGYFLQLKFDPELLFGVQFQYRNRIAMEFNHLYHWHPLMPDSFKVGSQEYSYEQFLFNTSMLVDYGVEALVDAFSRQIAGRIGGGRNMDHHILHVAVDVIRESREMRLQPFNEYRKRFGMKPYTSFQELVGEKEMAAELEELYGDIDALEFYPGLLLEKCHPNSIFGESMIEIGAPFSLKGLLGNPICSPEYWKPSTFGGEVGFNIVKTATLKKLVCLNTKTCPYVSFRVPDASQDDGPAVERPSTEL

Which “activation of PPRE-Luc reporter through PPARγ ΔAF2 mutant” value (PPARγ ΔAF2 mutant) does the source give for CCCCCCC(C)(C)c1cc(O)c2c(c1)OC(C)(C)[C@@H]1CC=C(C(=O)O)C[C@@H]21 [AJA, dimethylheptyl-THC-11-oic acid] here?
Its value is “failed to activate expression of the reporter gene”.

What about the “activation of human PPARα” value (human PPARα) of the same compound?
Its value is “did not activate”.

And the “effect on COX-1 activity” value (COX-1)?
Its value is “no effect”.

What about the acute inflammation [1] of the same compound?
Its acute inflammation is “suppress”.

What about the drug dependence ([2]; in vivo) of the same compound?
Its drug dependence is “did not exhibit drug dependence”.

What about the mutagenesis ([2]; in vivo) of the same compound?
Its mutagenesis is “did not exhibit drug dependence or cause mutagenesis”.

And the ulcerogenicity ([2]; therapeutically relevant doses)?
The ulcerogenicity was “totally non-ulcerogenic”.
